Reference: US20140303258A1, “Method of solubilizing insoluble bioactive compounds using triterpene glycosides and compositions thereof” (priority 2013, published 2014)

Experiments:
[1] = format: physicochemical
Experimental: (§1) • A. Two beakers each containing 200 ml distilled water (37° C.) were taken. • B. To each beaker, 2 grams commercially available curcuminoids (Curcumin C3 Complex®) was added and gently mixed. […] To the first beaker, 0.35 gram of Bacopa glycosides including 25% w/w to 75% w/w of total Bacosides (Bacopin®) was added and gently mixed for about 15 minutes. […] This corresponded to a Critical Micelle Concentration (CMC) of 17.5% • D. To the second beaker, 0.40 gram of Centella glycosides including at least 8% w/w of total triterpenes (Centellin®) was added and gently mixed for about 15 minutes. […] This corresponded to Critical Micelle Concentration (CMC) of 20.0%.
(§2) • A. Five beakers each containing 200 ml distilled water at 37° C. were taken. To 3 beakers were added 2 gm of bioactive compounds forskolin (Forslean® 95%), boswellic acids (Boswellin® 70%) and pterostilbene 99% respectively. To the other 2 beakers were added 2 gm of Saw Palmetto extract 85% and Ginger Soft extract SCFE 35% respectively. […] The Critical Micelle Concentration (CMC) for each system was determined (Table A; FIGS. 3A, 3B, 3C, 3D and 3E)
(§3) • A. To a beaker containing 200 ml distilled water (37° C.) was added 2 grams of tetrahydrocurcuminoids (C3 Reduct®). […] The majority (˜70%) of tetrahydrocurcuminoids was not observable at the bottom of the beaker anymore due to formation of emulsion (FIG. 4)

[2] = Behaviour of the bioactive in distilled water at 37° C. without solubilizer; format: physicochemical; details: 2 grams in 200 ml distilled water, no solubilizer
Experimental: as §1, §2, §3

Compound | CMC % (wt/wt) [1] | solubility in distilled water (observation) [2]
C=C[C@@]1(C)CC(=O)[C@]2(O)[C@@]3(C)[C@@H](O)CCC(C)(C)[C@@H]3[C@H](O)[C@H](OC(C)=O)[C@@]2(C)O1 [ForsLean 95%, forskolin] | 20% (wt/wt) | did not go into solution
COc1cc(/C=C/c2ccc(O)cc2)cc(OC)c1 [Pterostilbene 99%, pterostilbene] | 14.50% (wt/wt) | did not go into solution
